# System: Hs578T complex spheroid growth, percent test/control
# Experiment: Anticancer human tumor Hs578T cell line growth inhibition [AhR];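 also: luminescent viability signal as a proxy for spheroid growth; spheroids exposed to agents for one week after three days of growth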
# Settings: for IC50: curve of first compound; for viability, T/C: stronger effect = lower value
# Source text: Multicellular complex tumor spheroid response to aryl hydrocarbon receptor antagonists in combination with a variety of drugs and investigational agents in selected tumor cell lines
# The current study was undertaken to assess response to aryl hydrocarbon receptor antagonists in combination with standard-of-care drugs and investigational agents in solid tumor complex spheroid models. Complex spheroids include a stromal component modeled by human endothelial cells (HUVEC) and fibroblasts modeled by human mesenchymal stem cells (MSCs). The concentration ranges selected for each drug and investigational agent were based upon clinically achievable concentrations if the clinical Cmax of the agent was known.
# Compounds. The drugs and investigational agents: BAY 2416964 (NSC825713), GNF351 (NSC835774), CH-223191 (NSC835775), CPI-455 (NSC825282), aza-TdCyd (NSC777586), decitabine (NSC127716), belinostat (NSC758774), entinostat (NSC756642), pevonedistat (NSC761192), tazemetostat (NSC777109), talazoparib (NSC765396), olaparib (NSC753686), selinexor (NSC780203), nedisertib (M3814, NSC802822), bortezomib (NSC756655), venetoclax (NSC766270), doxorubicin (NSC123127), elimusertib (BAY189344, NSC800525), ceralasertib (AZD6738, NSC777638), TAK-243 (NSC785004), alisertib (NSC759677), etoposide (NSC141540), topotecan (NSC609699), eribulin (NSC707389), gemcitabine (NSC613327), carboplatin (NSC241240), cisplatin (NSC119875), and SN-38 (NSC673596) were obtained from the National Cancer Institute (NCI) Developmental Therapeutics Program Chemical Repository (32). The FDA-approved anticancer drug set is available from the Developmental Therapeutics Program at https://dtp.cancer.gov/organization/dscb/obtaining/available plates.htm. […] The stock solutions were prepared in dimethyl sulfoxide (DMSO, Sigma-Aldrich, St. Louis, MO, cat. D2650), except for the platinum compounds which were prepared in saline (Quality Biological, Gaithersburg, MD, cat. 114-055-101), at 800-fold the tested concentration and stored at -70 degrees C prior to their use. All drugs and investigational agents were tested over a range starting from a high concentration at or near the clinical Cmax and decreasing in half-log increments. If the clinical Cmax for an agent had not been determined, the highest concentration tested was 10 microM (Table 1).
# Cell Culture. All cells were maintained in an incubator at 37 degrees C and 5% CO2 with 95% humidity. The PDC lines were cultured according to standard operating procedures established by the NCI PDMR (https://pdmr.cancer.gov). Briefly, all PDCs were thawed and cultured in Matrigel-coated flasks prepared with a working solution of 1X Ham's F-12 nutrient mix, without supplementation (Invitrogen, Waltham, MA, cat. 11765054), 100 U/mL penicillin-streptomycin (Invitrogen, cat. 15140122), and 2.5% Matrigel (Corning Inc., Corning, NY, cat. 354248) for the first three passages. All PDCs were cultured in complete DMEM/F-12 media containing advanced DMEM/F-12 (Invitrogen, cat. 12634028), 4.9% defined fetal bovine serum, heat inactivated (HyClone Laboratories Inc., Logan, UT, cat. SH30070.03HI), 389 ng/mL hydrocortisone (Sigma-Aldrich, cat. H4001), 9.7 ng/mL human EGF recombinant protein (Invitrogen, cat. PHG0313), 23.4 microg/mL adenine (Sigma-Aldrich, cat. A2786), 97.3 U/mL penicillin-streptomycin (Invitrogen, cat. 15140122), 1.9 mM L-glutamine (Invitrogen, cat. 25030081), and 9.7 microM Y-27632 dihydrochloride (Tocris Bioscience, Bristol, United Kingdom, cat. 1254). The PDCs were cultured in complete DMEM/F12 media without 10 microM Y-27632 dihydrochloride for at least two passages prior to the screen. The established cell lines NCI-H1341 and […] were cultured in DMEM/F-12, HEPES (Invitrogen, cat. 11330032), 5% defined fetal bovine serum (HyClone Laboratories Inc., cat. SH30070.03), ITS premix universal culture supplement [insulin (5 microg/mL), transferrin (5 microg/mL), and selenious acid (5 ng/mL)] […]
# [1] = second compound 0.1 µM, first compound 0.0316 µM
# [2] = second compound 0.1 µM, first compound 0.1 µM
# [3] = second compound 0.1 µM, first compound 0.316 µM
# [4] = second compound 0.1 µM, first compound 1 µM
# [5] = second compound 0.1 µM, first compound 3.16 µM
# [6] = second compound 0.1 µM, first compound 10 µM
# [7] = second compound 0.316 µM, first compound 0.0316 µM
# [8] = second compound 0.316 µM, first compound 0.1 µM
# [9] = second compound 0.316 µM, first compound 0.316 µM
# [10] = second compound 0.316 µM, first compound 1 µM
# [11] = second compound 0.316 µM, first compound 3.16 µM
# [12] = second compound 0.316 µM, first compound 10 µM
# [13] = second compound 1 µM, first compound 0.0316 µM
# [14] = second compound 1 µM, first compound 0.1 µM
# [15] = second compound 1 µM, first compound 0.316 µM
# [16] = second compound 1 µM, first compound 1 µM
# [17] = second compound 1 µM, first compound 3.16 µM
# [18] = second compound 1 µM, first compound 10 µM
# [19] = second compound 3.16 µM, first compound 0.0316 µM
# [20] = second compound 3.16 µM, first compound 0.1 µM
# [21] = second compound 3.16 µM, first compound 0.316 µM
# [22] = second compound 3.16 µM, first compound 1 µM
# [23] = second compound 3.16 µM, first compound 3.16 µM
# [24] = second compound 3.16 µM, first compound 10 µM
# [25] = second compound 10 µM, first compound 0.0316 µM
# [26] = second compound 10 µM, first compound 0.1 µM
# [27] = second compound 10 µM, first compound 0.316 µM
# [28] = second compound 10 µM, first compound 1 µM
# [29] = second compound 10 µM, first compound 3.16 µM
# [30] = second compound 10 µM, first compound 10 µM
Compound,IC50 (second compound 0.1 µM) [µM],IC50 (second compound 0.316 µM) [µM],IC50 (second compound 1 µM) [µM],IC50 (second compound 3.16 µM) [µM],IC50 (second compound 10 µM) [µM],"viability, T/C [1] [%]","viability, T/C [2] [%]","viability, T/C [3] [%]","viability, T/C [4] [%]","viability, T/C [5] [%]","viability, T/C [6] [%]","viability, T/C [7] [%]","viability, T/C [8] [%]","viability, T/C [9] [%]","viability, T/C [10] [%]","viability, T/C [11] [%]","viability, T/C [12] [%]","viability, T/C [13] [%]","viability, T/C [14] [%]","viability, T/C [15] [%]",also measured
COc1cccc2c1C(=O)c1c(O)c3c(c(O)c1C2=O)CC(O)(C(=O)CO)CC3OC1CC(N)C(O)C(C)O1 (stereo not given) + CC(CO)NC(=O)c1cc(-c2ccc(Cl)cc2)nn(-c2cnn(C)c2)c1=O,0.469,0.502,0.497,0.398,0.374,96.3,86.2,64.6,23.9,3.62,3.54,78.7,84.3,66.8,24.1,2.56,2.88,92,88.1,67.8,"viability, T/C [16]: 22.7%; viability, T/C [17]: 3.26%; viability, T/C [18]: 2.93%; viability, T/C [19]: 88.6%; viability, T/C [20]: 91%; viability, T/C [21]: 58.1%; viability, T/C [22]: 14.6%; viability, T/C [23]: 2.55%; viability, T/C [24]: 3.04%; viability, T/C [25]: 78.3%; viability, T/C [26]: 86.4%; viability, T/C [27]: 57.8%; viability, T/C [28]: 4.9%; viability, T/C [29]: 2.84%; viability, T/C [30]: 2.14%"
COc1ccc([C@@H](O)c2cc(-c3ncnc4cc(N5CCOCC5)ccc34)c(F)cc2Cl)nn1 + Cc1ccccc1N=Nc1ccc(NC(=O)c2ccnn2C)c(C)c1,3.4,4.79,3.33,2.87,3.08,106,112,92.8,82.6,49.5,32.2,116,108,99.4,89.8,58.4,31.8,107,106,100,"viability, T/C [16]: 80.3%; viability, T/C [17]: 50.8%; viability, T/C [18]: 34.5%; viability, T/C [19]: 98.7%; viability, T/C [20]: 93.2%; viability, T/C [21]: 86.9%; viability, T/C [22]: 77.8%; viability, T/C [23]: 46.1%; viability, T/C [24]: 30.5%; viability, T/C [25]: 74.3%; viability, T/C [26]: 68.2%; viability, T/C [27]: 73.9%; viability, T/C [28]: 63.1%; viability, T/C [29]: 50.1%; viability, T/C [30]: 32.9%"
